Measurements as given in patent US11365181B2, “P-phenylenediamine derivative as potassium channel regulator and preparation method and medical application thereof” (Shanghai Zhimeng Biopharma, Inc., priority 2018, dated 2022).
pEC50: −log10 of the molar value. Like-named read-outs stand apart in the source and are kept apart here. Values belong to the molecule of their own block, whether it stands above or below them.

Key:
[1] = biological target: KCNQ2 potassium channel (CHO-KCNQ2 cells) (Homo sapiens (Human), UniProt O43526); test: Activity test of potassium ion channel opener (FDSS/μCELL detection, FluxOR potassium ion channel assay); type: cell-based; details: for pEC50: CHO-KCNQ2 cells, FluxOR fluorescence, FDSS/μCELL; for increase of activity versus 6-membered ring comparison compound (ratio of EC50): 03043 vs compound A, 03058 vs compound B
KCNQ2 potassium channel (CHO-KCNQ2 cells), sequence (O43526 whole entry): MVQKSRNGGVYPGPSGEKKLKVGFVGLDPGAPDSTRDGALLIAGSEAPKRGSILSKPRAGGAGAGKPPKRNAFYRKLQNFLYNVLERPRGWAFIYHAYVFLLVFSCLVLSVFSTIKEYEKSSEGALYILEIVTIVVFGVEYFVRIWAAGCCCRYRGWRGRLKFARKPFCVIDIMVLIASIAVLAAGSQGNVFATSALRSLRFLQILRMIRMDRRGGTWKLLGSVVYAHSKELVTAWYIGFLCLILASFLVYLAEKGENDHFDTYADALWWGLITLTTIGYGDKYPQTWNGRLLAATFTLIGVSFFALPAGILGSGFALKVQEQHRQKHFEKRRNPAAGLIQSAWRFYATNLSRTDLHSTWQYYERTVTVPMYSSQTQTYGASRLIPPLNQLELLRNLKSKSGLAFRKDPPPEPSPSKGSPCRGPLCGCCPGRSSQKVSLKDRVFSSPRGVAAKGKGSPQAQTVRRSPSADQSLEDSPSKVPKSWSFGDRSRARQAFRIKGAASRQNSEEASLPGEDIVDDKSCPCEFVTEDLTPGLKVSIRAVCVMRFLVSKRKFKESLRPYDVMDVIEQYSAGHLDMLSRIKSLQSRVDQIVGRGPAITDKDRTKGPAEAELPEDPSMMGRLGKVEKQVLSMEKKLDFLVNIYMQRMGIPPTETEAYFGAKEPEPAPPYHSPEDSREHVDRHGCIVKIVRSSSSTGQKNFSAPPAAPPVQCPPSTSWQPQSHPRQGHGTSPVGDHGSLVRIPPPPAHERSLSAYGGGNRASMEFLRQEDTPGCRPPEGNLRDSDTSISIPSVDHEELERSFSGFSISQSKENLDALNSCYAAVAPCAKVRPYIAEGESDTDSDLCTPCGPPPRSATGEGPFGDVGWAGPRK
Procedure: Activity Test of Potassium Ion Channel Opener (FDSS/ρCELL Detection)
Cell preparation: CHO-KCNQ2 cells were cultured in a 175 cm^2 culture flask, and when the cells was grown to a density of 60-80%, the culture medium was removed, washed with 7 mL PBS (Phosphate Buffered Saline) once, then 3 mL 0.25% Trypsin was added to digest. After the digestion was completed, 7 mL culture medium (90% DMEM/F12+10% FBS+500 μg/mL G418) was added to neutralize, centrifugated for 3 minutes at 800 rpm. The supernatant was aspirated, then 5 mL culture medium was added to resuspend, and then the cells were counted.
Cell plating: The density to 3×10^4/well was adjusted according to the results of cell counting. After standing at room temperature for 30 minutes, the cells were placed in a 37° C. CO2 incubator and incubated overnight for 16-18 hours. The cell density reached about 80%.
Fluorescent dye incubation: The cell culture medium was discarded, 80 μL/well loading buffer was added, and the cells were incubated in dark at room temperature for 60 minutes.
Compound incubation: the loading buffer was discarded, 80 μL/well prepared compound solution was added, incubated at room temperature and in dark for 20 minutes.
Fluorescence data collection: FDSS/μCELL instrument for real-time fluorescence is used for signal recording, wherein excitation wavelength was 480 nm, emission wavelength was 540 nm, and signals were recorded 1 times per second, after baseline was recorded for 10 seconds, the addition of 20 μL/well stimulation buffer was started, and then the signal was continuously record until the end of 180 seconds.
loading buffer: 10 mL/plate, the preparation method was as follows:
Test buffer sample: 100 mL/plate, the preparation method was as follows:
Stimulation buffer: 5 mL/plate, the preparation method was as follows:
The above buffer was from a commercially available kit, the kit name was FluxOR potassium ion channel assay, the manufacturer's brand was Invitrogen, the article number was F10017, the lot number was 913728.
20 mM DMSO compound mother liquor was prepared, 10 μL of 20 mM compound mother liquor was took and added into 20 μL DMSO solution, serially diluted 3 times to 8 intermediate concentrations; then the middle concentration of the compound was took to the test buffer, 200 times dilution to get the final concentration to be tested, 80 μL was took and added to the test plate.
The highest test concentration was 100 μM, followed by […], 33.33, 11.11, 3.70, 1.23, 0.41, 0.137, 0.045 μM, total 8 concentrations. Each concentration 3 replicate holes.
This concentration of DMSO had no effect on the KCNQ2 potassium channel.
Experimental data was analyzed by Excel 2007 and GraphPad Prism 5.0 software, and the ratio of 180 seconds was calculated to calculate the excitement effect. The excitement effect of the compound is calculated by the following formula: […]
Environment: Temperature about 25° C.
Reagent: FluxOR™ Detection Kit (Invitrogen, Cat #[…])
The experimental data in the report might meet the following criteria: Z′ Factor>0.5
2. Determination Results: See Table 1 for Details, where the Smaller EC50 was, the Higher the Activity of the Corresponding Compound was.
References for the above test methods:
(2) Jinfeng Yue et al. Acta Pharmacologica Sinica, 2016, 37:105-110.

[2] = Pharmacokinetic study of compound 03058 in male ICR mice; type: in vivo
Procedure: Pharmacokinetic Study of Compound 03058
1) Research purpose: To obtain the pharmacokinetic characteristics of compound 03058 in male ICR mice
6 healthy male ICR mice (body weight range of 18-22 grams) were taken, divide them into 2 groups (3 mice/group, and 3 mice/time point), fasted for more than 12 hours (only oral administration group), and administered intravenously(0.05 mg/kg), orally (1 mg/kg), at time points of 0.083 (intravenous administration only), 0.25, 0.5, 1, 2, 4, 6 (only oral administration). After 8 and 24 h, blood were collected by cardiac puncture. At least 0.3 mL of whole blood was transferred to the EDTA-K2 anticoagulation tube, and within half an hour, the plasma was collected by centrifugation (6000 rpm, 8 minutes, 4° C.), and frozen at −20° C. for use. (Compound configuration: 5% DMAC+10% Solutol HS 15+85% Saline was used to prepare a solution having a concentration of iv 0.01 mg/mL and po 0.1 mg/mL).
(§1) Experimental results: According to the blood drug concentration data obtained, the non-compartmental model of WinNonlin® 7.0 software (Pharsight, USA) was used to calculate the pharmacokinetic parameters after administration.

[3] = Plasma and brain concentration / cerebral blood ratio (BBB penetration) in male SD rats after single oral administration; type: in vivo; details: rat; for concentration at 1 h / Kp at 1 h: 1 h after single oral administration 5 mg/kg; for concentration at 4 h / Kp at 4 h: 4 h after single oral administration 5 mg/kg; for concentration at 8 h / Kp at 8 h: 8 h after single oral administration 5 mg/kg; for Kp / Kp at 1 h / Kp at 4 h / Kp at 8 h: brain/plasma; for Kp: 5 mg/kg, at each time point (1, 4, 8 h), oral administration
Description: (§2) Study on the Pharmacokinetics of Compounds 03043 and 03044
(§3) 1) Research purpose: To obtain the pharmacokinetic characteristics of compounds 03043 and 03044 in male SD rats and their blood-brain barrier (BBB) penetration
(§4) 15 healthy male SD rats (weight range of 200-250 g) were taken and divided into 3 groups, 3 rats were used for intravenous administration in group 1, 3 rats were used for oral administration in group 2, and 9 rats were used for the determination of cerebral blood ratio after oral administration in group 3 (3 rats/time point). Group 2 and group 3 were fasted for more than 12 hours. Intravenous: 1 mg/kg, oral 5 mg/kg, at time point 0.083 (only group 1), 0.25 (only groups 1 and 2), 0.5 (only groups 1 and 2), 1.2 (only groups 1 and 2). After 4, 8 and 24 h (only group 1 and group 2), blood was collected by jugular vein or cardiac puncture, and at least 0.3 mL of whole blood was collected into an EDTA-K2 anticoagulant tube. Within half an hour, the plasma was collected by centrifugation (6000 revolutions, 8 minutes, 4° C.), frozen at −20° C. for later use. At the same time, brain tissues were collected from group 3 (time points were 1, 4, and 8 h respectively), washed with normal saline, blotted dry with absorbent paper, weighed, and frozen at −20° C. for use. (Compound preparation: 5% DMAC+10% Solutol HS 15+85% Saline was used to prepare a solution having a concentration of iv 0.2 mg/mL and po 0.3 mg/mL).

[4] = Pharmacokinetics of compounds 03043 and 03044 in male SD rats; type: in vivo; details: for AUC(0-inf) / AUC(0-t) / Cmax / half-life / Tmax: rat, plasma
Description: as §2, §3, §4, §1

[5] = mouse, Intravenous 0.05 mg/kg, plasma
[6] = mouse, po, Gavage 1 mg/kg, plasma
[7] = brain, read-out: Brain concentration
[8] = plasma, read-out: Plasma concentration

Compound: Cc1cc(N2CCCc3sccc3C2)cc(C)c1NC(=O)CC(C)(C)C [Compound 03028, N-(2,6-dimethyl-4-(4,6,7,8-tetrahydro-5H-thieno[3,2-c]azepin-5-yl)phenyl)-3,3-dimethylbutanamide]
pEC50 [1]: 6.57

Compound: Cc1cc(N2CCCc3cccnc3C2)cc(C)c1NC(=O)CC(C)(C)C [Compound 03029, N-(2,6-dimethyl-4-(5,6,7,9-tetrahydro-8H-pyrido[2,3-c]azepin-8-yl)phenyl)-3,3-dimethylbutanamide]
pEC50 [1]: 4.83

Compound: Cc1cc(N2CCCc3cscc3C2)cc(C)c1NC(=O)CC(C)(C)C [Compound 03027, N-(2,6-dimethyl-4-(4,6,7,8-tetrahydro-5H-thieno[3,4-c]azepin-5-yl)phenyl)-3,3-dimethylbutanamide]
pEC50 [1]: 6.83

Compound: Cc1cc(N2CCCc3cc(Cl)sc3C2)cc(C)c1NC(=O)CC(C)(C)C [Compound 03044, N-(4-(2-chloro-4,5,6,8-tetrahydro-7H-thieno[2,3-c]azepin-7-yl)-2,6-dimethylphenyl)-3,3-dimethylbutanamide]
pEC50 [1]: 7.24
concentration at 1 h [3, 7]: 251 ng/g
concentration at 4 h [3, 7]: 102 ng/g
concentration at 8 h [3, 7]: 67.6 ng/g
Kp [3]: 1 to 2.4
Kp at 1 h [3]: 2.2
Kp at 4 h [3]: 2.1
Kp at 8 h [3]: 1.7
concentration at 1 h [3, 8]: 112 ng/mL
concentration at 4 h [3, 8]: 50.2 ng/mL
concentration at 8 h [3, 8]: 41.3 ng/mL
F ([4]; Gavage 5 mg/kg): 13.9%
AUC(0-inf) ([4]; Intravenous 1 mg/kg): 1060 ng·h/mL
AUC(0-t) ([4]; Intravenous 1 mg/kg): 1040 ng·h/mL
Cmax ([4]; Intravenous 1 mg/kg): 1740 ng/mL
half-life ([4]; Intravenous 1 mg/kg): 1.8 h
AUC(0-inf) ([4]; po, Gavage 5 mg/kg): 889 ng·h/mL
AUC(0-t) ([4]; po, Gavage 5 mg/kg): 723 ng·h/mL
Cmax ([4]; po, Gavage 5 mg/kg): 118 ng/mL
Tmax ([4]; po, Gavage 5 mg/kg): 0.67 h
half-life ([4]; po, Gavage 5 mg/kg): 7.08 h

Compound: Cc1cc(N2CCCc3ccsc3C2)cc(C)c1NC(=O)CC(C)(C)C [Compound 03026, N-(2,6-dimethyl-4-(4,5,6,8-tetrahydro-7H-thieno[2,3-c]azepin-7-yl)phenyl)-3,3-dimethylbutanamide]
pEC50 [1]: 7.06

Compound: Cc1cc(N2CCCc3sc(Cl)cc3C2)cc(C)c1NC(=O)CC(C)(C)C [Compound 03043, N-(4-(2-chloro-4,6,7,8-tetrahydro-5H-thieno[3,2-c]azepin-5-yl)-2,6-dimethylphenyl)-3,3-dimethylbutanamide]
increase of activity versus 6-membered ring comparison compound (ratio of EC50) [1]: about 2.83 times
pEC50 [1]: 7.64
concentration at 1 h [3, 7]: 67.1 ng/g
concentration at 4 h [3, 7]: 65.7 ng/g
concentration at 8 h [3, 7]: 20 ng/g
Kp [3]: 1 to 2.4
Kp at 1 h [3]: 2.4
Kp at 4 h [3]: 1.5
Kp at 8 h [3]: 1
concentration at 1 h [3, 8]: 32.2 ng/mL
concentration at 4 h [3, 8]: 47.9 ng/mL
concentration at 8 h [3, 8]: 20.8 ng/mL
F ([4]; Gavage 5 mg/kg): 12.79%
AUC(0-inf) ([4]; Intravenous 1 mg/kg): 964 ng·h/mL
AUC(0-t) ([4]; Intravenous 1 mg/kg): 957 ng·h/mL
Cmax ([4]; Intravenous 1 mg/kg): 2040 ng/mL
half-life ([4]; Intravenous 1 mg/kg): 1.42 h
AUC(0-inf) ([4]; po, Gavage 5 mg/kg): 1110 ng·h/mL
AUC(0-t) ([4]; po, Gavage 5 mg/kg): 612 ng·h/mL
Cmax ([4]; po, Gavage 5 mg/kg): 129 ng/mL
Tmax ([4]; po, Gavage 5 mg/kg): 0.25 h
half-life ([4]; po, Gavage 5 mg/kg): 12.3 h

Compound: Cc1cc2c(s1)CCCCN2c1cc(C)c(NC(=O)CC(C)(C)C)c(C)c1 [Compound 03039, N-(2,6-dimethyl-4-(2-methyl-5,6,7,8-tetrahydro-4H-thieno[3,2-b]azepin-4-yl)phenyl)-3,3-dimethylbutyramide]
pEC50 [1]: 6.39

Compound: Cc1cc(N2CCCCc3sccc32)cc(C)c1NC(=O)CC(C)(C)C [Compound 03034, (N-(2,6-dimethyl-6-(1-tert-butylacetyl)aniline))-(5,6,7,8-tetrahydro-4H)-thieno [3,2]azaanthracene]
pEC50 [1]: 7.15

Compound: Cc1cc(N2CCCCc3ncccc32)cc(C)c1NC(=O)CC(C)(C)C [Compound 03037, N-(2,6-Dimethyl-4-(6,7,8,9-tetrahydro-5H-pyrido[32-b]azepin-5-yl)phenyl)-3,3-dimethylbutanamide]
pEC50 [1]: 5.19

More lines, now with the values ahead:

pEC50 [1]: 7.31
Compound: Cc1ccc2c(c1)COCCN2c1cc(C)c(NC(=O)CC(C)(C)C)c(C)c1 [Compound 03066]

pEC50 [1]: < 4.00
Compound: Cc1cc(N2CCOc3cc(F)ccc32)cc(C)c1NC(=O)CC(C)(C)C [Compound 03060, N-(2,6-dimethyl-6-(1-tert-butylacetyl)aniline)) 4-(7-fluoro-2,3-dihydro-4H-benzo[1,4] oxazine]

pEC50 [1]: 6.07
Compound: Cc1cc(N2CCCOc3cc(F)ccc32)cc(C)c1NC(=O)CC(C)(C)C [Compound 03059, N-(4-(8-fluoro-3,4-dihydrobenzo[b] [1,4]oxazepine-5(2H)-yl)-2,6-dimethylphenyl)-3,3-dimethylbutanamide]

increase of activity versus 6-membered ring comparison compound (ratio of EC50) [1]: 12.25 times
pEC50 [1]: 8.10
F ([2]; Gavage 1 mg/kg): 30.47%
AUC(0-inf) [2, 5]: 7.2 ng·h/mL
AUC(0-t) [2, 5]: 7.2 ng·h/mL
Cmax [2, 5]: 15.1 ng/mL
half-life [2, 5]: 0.73 h
AUC(0-inf) [2, 6]: 43.6 ng·h/mL
AUC(0-t) [2, 6]: 43.6 ng·h/mL
Cmax [2, 6]: 17 ng/mL
Tmax [2, 6]: 0.5 h
half-life [2, 6]: 1.05 h
Compound: Cc1cc(N2CCOc3cc(F)ccc3C2)cc(C)c1NC(=O)CC(C)(C)C [Compound 03058, N-(4-(8-fluoro-2,3-dihydrobenzo[f][1,4]oxazepin-4(5H)-yl)-2,6-dimethylphenyl)-3,3-dimethylbutanamide]

pEC50 [1]: 7.01
Compound: Cc1cc(N2CCc3cc(F)ccc3C2)cc(C)c1NC(=O)CC(C)(C)C [Compound B, reference compound]

pEC50 [1]: 5.08
Compound: O=C(Nc1ccc(Cl)nc1)c1ccc(F)cc1 [ZTZ240, reference compound]

pEC50 [1]: 6.59
Compound: Cc1cc(N2CCCCc3sc(Cl)cc32)cc(C)c1NC(=O)CC(C)(C)C [Compound 03049, N-(4-(2-chloro-5,6,7,8-tetrahydro-4H-thieno[3,2-b]azepin-4-yl)-2,6-dimethylphenyl)-3,3-dimethylbutanamide]
